Source: US5646136A, “Methods of inhibiting angiogenesis and tumor growth, and treating ophthalmologic conditions with angiostatic and therapeutic steroids” (Duke University, priority 1994, dated 1997)
Entries after “also recorded” stand apart in the source; their conditions may differ.

Tests used:
[1] = test system: human pancreatic HPAF cell line; assay: Growth of human pancreatic HPAF tumor in nude mice; assay type: in vivo
Protocol: The HPAF tumor cell line is resistant to virtually all chemotherapeutic agents and grows rapidly in the nude mouse. Growth inhibition of this tumor for a period of time is thus indicative of significant anti-tumor activity.
Nude mice were implanted subcutaneously with 500,000 cells of the human pancreatic HPAF cell line. See Selvan et al., Drug Design and Discovery 9: […] (1992). Treatment with 9α-fluoro-11β-hydroxy-16β-methyl-1,4-androstadien-3-one 17β-carboxylic acid steroid (20 mg/kg subcutaneously in 90 percent propylene glycol-ethanol, injected twice daily 6 days per week) was commenced the following day and continued for one month. Growth of tumor was inhibited for about 3 weeks compared to controls. After this point, rapid growth ensued.

glucocorticoid activity = assay: Glucocorticoid activity (general statements)
[2] = test system: corneal neovascularization; assay: Inhibition of corneal neovascularization in cauterized rat corneas, topical application four times per day for four days; assay type: in vivo; parameters: Neovascularization (total length of blood vessels in the cornea): unit not given here; conditions: for Inhibition of corneal vascularization (significance, in words): applied topically; for Corneal angiogenesis score / Neovascularization (total length of blood vessels in the cornea): mean ± S.D.; for Corneal angiogenesis score: subjective score 1+ to 4+; for Percent Inhibition of neovascularization (angiogenesis score) / Percent Inhibition (total vessel length): versus vehicle
Protocol: (§1) The ability of etianic acids to inhibit angiogenesis was evaluated in vivo in rats. Each animal had its corneas cauterized with silver nitrate/potassium nitrate. The cauterization causes the normally avascular cornea to undergo neovascularization (anglogenesis). This animal model, refined by Proia et al., Lab. Invest. 58: 473-479 (1988) and now a well-established assay, quantifies corneal neovascularization by computerized image analysis. […] Ophthalmol. Vis. Science 30: 1588-1593 (1989), and can provide a more definitive evaluation of angiostatic activity than models using the chorioallantoic membrane in the chick egg or the rabbit eye model. See Proia et al., Exp. Eye Res. (in press--to be published in Vol. 57 in 1993).
(§2) Female rats were obtained from Zivic-Miller Laboratories, Zelienople, Pa. There were 6-8 rats included in each treatment group. Neovascularization was induced by cauterizing both corneas of each anesthetized rat; this was performed by applying the tip of a silver nitrate/potassium nitrate to the cornea for 5-7.5 seconds.
The corneal tissues were treated with steroid formulations.
Steroids were formulated in vehicle containing 10 percent Tween 20 (polyoxyethylene sorbitan monolaurate) dissolved in 0.9 percent saline with percent (by volume) 0.2M tris (hydroxymethyl)aminomethane, pH 7.4. […] All steroids were tested at a concentration of 1 percent; additionally, some formulations were also tested at 0.01 percent, 0.1 percent, and 2.5 percent. Three 10 μl drops of each concentration of steroid were applied topically to each cauterized cornea four times per day (8:00 a.m., noon, 4:00 p.m., and 8:00 p.m.).
(§3) After four days of treatment, the animals were euthanized by rapid asphyxiation in a carbon dioxide chamber. The vasculature was perfused with a mixture of 10 percent india ink/11 percent gelatin/lactated Ringer's solution. Corneal tissue was dissected and prepared as flat mounts. During dissection, the corneas were examined with a dissecting microscope, and the degree of neovascularization was graded numerically from 1+ to 4+. After dehydration with alcohols, cleaning with xylene, mounting, and drying, the area of each cornea and the length of blood vessels were determined by computerized image analysis.
Statistical evaluation of inhibition of corneal neovascularization by each concentration of drug was evaluated using Mann Whitney U Tests (one-tailed; P<0.05=significant difference). […] In all cases, however, image analysis was used to quantitatively confirm visual observations.

thymus = assay: Thymus weight of rats treated topically in the corneal angiogenesis study; assay type: in vivo, rat
Protocol: as §1, §2
(§4) Steroids were formulated in vehicle containing 10 percent Tween 20 (polyoxyethylene sorbitan monolaurate) dissolved in 0.9 percent saline with percent (by volume) 0.2M tris (hydroxymethyl)aminomethane, pH 7.4. The steroids dissolved readily when the pH was adjusted to 7.0-8.0 with NaOH or KOH. All steroids were tested at a concentration of 1 percent; additionally, some formulations were also tested at 0.01 percent, 0.1 percent, and 2.5 percent. Three 10 μl drops of each concentration of steroid were applied topically to each cauterized cornea four times per day (8:00 a.m., noon, 4:00 p.m., and 8:00 p.m.).
as §3

[3] = Body weight of rats treated topically in the corneal angiogenesis study; assay type: in vivo, rat
Protocol: as §1, §2, §4
as §3, with “Corneal tissue was dissected and prepared as flat mounts. During dissection, the corneas were examined with a dissecting microscope, and the degree of neovascularization was graded numerically from 1+ to 4+.” left out

[4] = test system: corneal neovascularization; assay: Corneal angiogenesis inhibition, subcutaneous injection once/day; assay type: in vivo, rat
Protocol: as §1, §2, §3
The ability of compounds 2013, 518, and 513 to inhibit corneal angiogenesis when injected subcutaneously once/day to was assessed on rats prepared as described in Example 8. Dexamethasone was used as a positive control.

Question: For “9α-fluoro-11β-hydroxy-16β-methyl-1,4-androstadien-3-one 17β-carboxylic acid”, which “Period for which growth of tumor was inhibited compared to controls” value ([1]; 20 mg/kg subcutaneously twice daily 6 days per week, one month) is on record?
Answer: The value was “about 3 weeks”.

Question: Which “Glucocorticoid activity (in words)” value (glucocorticoid activity) does the source give for `C=C1C[C@H]2[C@@H]3C=C(C)C4=CC(=O)C=C[C@]4(C)[C@H]3CC[C@]2(C)[C@@]1(OC(C)=O)C(C)=O` [1-dehydro melegesterol acetate, 17α-acetoxy-6-methyl-16-methylene-1,4,6-pregnatriene-3,20-dione] here?
Answer: Its value is “lacks glucocorticoid activity”.

Question: For `C[C@]12C[C@](C)(O)[C@H]3[C@@H](CCC4=CC(=O)C=C[C@@]43C)[C@@H]1CC[C@@H]2O` [11β,17β-dihydroxy-11α-methyl-1,4-androstadien-3-one, reference compound], which “Glucocorticoid activity (in words)” value (glucocorticoid activity) is on record?
Answer: The value was “anti-glucocorticoid”.

Question: With `C[C@]12CCC(=O)C=C1CC[C@@H]1[C@@H]2[C@@H](O)C[C@@]2(C)[C@H]1CC[C@]2(O)C(=O)O` [Compound 323, 17β-carboxyl-11β,17α-dihydroxy-4-androsten-3-one] as the compound, how does the “Inhibition of corneal vascularization (significance, in words)” value (“Inhibition … (significance, in words)” below) [2] read?
Answer: The value was “did cause significant inhibition of corneal vascularization; also recorded: significantly suppressed”.

Question: What about the Corneal angiogenesis score ([2]; topical 0.01%) of the same compound?
Answer: Its Corneal angiogenesis score is 1.7 ± 1.1.

Question: And the Corneal angiogenesis score ([2]; topical 0.1%)?
Answer: Its Corneal angiogenesis score is 2.1 ± 0.5.

Question: And the Corneal angiogenesis score ([2]; topical 1.0%)?
Answer: Its Corneal angiogenesis score is 1.3 ± 0.9.

Question: And the “Percent Inhibition of neovascularization (angiogenesis score)” value ([2]; topical 1.0%)?
Answer: Its value is 28%.

Question: Which results are given for `C[C@H]1C[C@H]2[C@@H]3CCC4=CC(=O)C=C[C@]4(C)[C@@]3(F)[C@@H](O)C[C@]2(C)[C@@]1(O)C(=O)O` [Compound 513, 17β-carboxyl-11β,17α-dihydroxy-9α-fluoro-16β-methyl-1,4-androstadien-3-one]?
Answer: Degree of inhibition of corneal angiogenesis compared with dexamethasone ([2]; 1 percent compound topical vs 0.1 percent dexamethasone sodium phosphate): appeared similar to that caused by topically applied 0.1 percent dexamethasone sodium phosphate; Inhibition of corneal vascularization (significance, in words) [2]: did cause significant inhibition of corneal vascularization; Corneal angiogenesis score ([2]; topical 0.01%): 1.8 ± 0.4; Percent Inhibition of neovascularization (angiogenesis score) ([2]; topical 0.01%): 0%; Corneal angiogenesis score ([2]; topical 0.1%): 1.1 ± 0.9; Percent Inhibition of neovascularization (angiogenesis score) ([2]; topical 0.1%): 39%; Corneal angiogenesis score ([2]; topical 1.0%): 0.4 ± 0.4; Percent Inhibition of neovascularization (angiogenesis score) ([2]; topical 1.0%): 78%; Change in thymus weight (in words) (thymus; rat, in vivo): did not cause any significant change in thymus weight; Decrease of thymus weight from control (thymus; rat, in vivo): 45%; Thymus weight (thymus; rat, in vivo): 0.187±0.042 gm; Loss of body weight (in words) ([3]; rat, in vivo): no significant loss of body weight; Neovasc. ([4]; 10 mg/kg/day subcutaneous): 8.2 ± 1.1%; Reduction of corneal neovascularization versus vehicle ([4]; 10 mg/kg/day subcutaneous): -46.7%; Growth of HPAF tumor (in words) ([1]; nude mice): inhibits growth of the human HPAF pancreatic tumor in nude mice

Question: Which “Inhibition … (significance, in words)” value [2] does the source give for `C[C@H]1C[C@@H]2[C@H]([C@@H](O)C[C@@]3(C)[C@H]2CC[C@]3(O)C(=O)O)[C@@]2(C)C=CC(=O)C=C12` [Compound 517, 17β-carboxyl-11β,17α-dihydroxy-6α-methyl-1,4-androstadien-3-one] here?
Answer: The value was “did not significantly inhibit corneal vascularization”.

Question: With `C[C@@H]1C[C@H]2[C@@H]3CCC4=CC(=O)C=C[C@]4(C)[C@@]3(F)[C@@H](O)C[C@]2(C)[C@@]1(O)C(=O)O` [Compound 518, 17β-carboxyl-11β,17α-dihydroxy-9α-fluoro-16α-methyl-1,4-androstadien-3-one] as the compound, how does the “Inhibition … (significance, in words)” value [2] read?
Answer: Its value is “did not significantly inhibit corneal vascularization”.

Question: And the Neovasc. ([4]; 10 mg/kg/day subcutaneous)?
Answer: The Neovasc. was 15.7 ± 5.8%.

Question: With `C[C@]12C[C@H](O)[C@H]3[C@@H](CCC4=CC(=O)CC[C@@]43C)[C@@H]1CC[C@@H]2C(=O)O` [Compound 525, 17β-carboxyl-11β-hydroxy-4-androsten-3one] as the compound, how does the “Inhibition … (significance, in words)” value [2] read?
Answer: Its value is “did not significantly inhibit corneal vascularization”.

Question: For `C[C@]12CC[C@@H](O)CC1CC[C@@H]1[C@@H]2[C@@H](O)C[C@@]2(C)[C@H]1CC[C@]2(O)C(=O)O` (stereo partly drawn) [Compound 526, 17β-carboxyl-3α,11β,17α-trihydroxy-androstane], which “Inhibition … (significance, in words)” value [2] is on record?
Answer: Its value is “did not significantly inhibit corneal vascularization”.

Question: Which “Inhibition … (significance, in words)” value [2] does the source give for `C[C@]12CCC(=O)C=C1CC[C@@H]1[C@@H]2C(=O)C[C@@]2(C)[C@H]1CC[C@]2(O)C(=O)O` [Compound 527, 17β-carboxyl-17α-hydroxy-4-androsten-3,11-dione] here?
Answer: Its value is “did not significantly inhibit corneal vascularization”.

Question: With `C[C@@H]1C[C@H]2[C@@H]3C[C@H](F)C4=CC(=O)C=C[C@]4(C)[C@@]3(F)[C@@H](O)C[C@]2(C)[C@@]1(O)C(=O)O` [Compound 532, 6,9-difluoro-11β,17-dihydroxy-16α-methylpregna-1,4-diene-3-one-17β-carboxylic acid] as the compound, how does the “Inhibition … (significance, in words)” value [2] read?
Answer: The value was “did cause significant inhibition of corneal vascularization; also recorded: ability of this compound to inhibit corneal neovascularization; also recorded: significant differences between vehicle and Compound 532 at all concentrations”.

Question: And the “Neovascularization (total length of blood vessels in the cornea)” value ([2]; topical 0.01 percent)?
Answer: Its value is 355.4 ± 62.2.

Question: What about the “Percent Inhibition (total vessel length)” value ([2]; topical 0.01 percent) of the same compound?
Answer: Its value is 12.3%.

Question: What about the “Neovascularization (total length of blood vessels in the cornea)” value ([2]; topical 0.1 percent) of the same compound?
Answer: Its value is 322.0 ± 78.0.

Question: What about the “Percent Inhibition (total vessel length)” value ([2]; topical 0.1 percent) of the same compound?
Answer: Its value is 20.6%.

Question: And the “Neovascularization (total length of blood vessels in the cornea)” value ([2]; topical 1.0 percent)?
Answer: Its value is 202.2 ± 74.3.

Question: And the “Percent Inhibition (total vessel length)” value ([2]; topical 1.0 percent)?
Answer: The value was 50.1%.

Question: And the “Thymus weight difference between vehicle- and drug-treated groups (in words)” value (thymus; rat, in vivo)?
Answer: The value was “no significant difference between vehicle- and drug-treated groups”.

Question: Which “Inhibition … (significance, in words)” value [2] does the source give for `C[C@]12CC[C@H]3[C@@H](CCC4=CC(=O)CC[C@@]43C)[C@@H]1CC[C@@H]2C(=O)O` [Compound 1000, 4-androsten-3-one-17β-carboxylic acid] here?
Answer: Its value is “did not significantly inhibit corneal vascularization”.

Question: For `C[C@@H]1C[C@H]2[C@@H]3CCC4=CC(=O)C=C[C@]4(C)[C@@]3(F)[C@@H](O)C[C@]2(C)[C@@]1(O)C(=O)CO` [dexamethasone, reference compound], which “Reduction of thymus weight” value (thymus; topical 0.1 percent, similar experiment) is on record?
Answer: Its value is 75%.

Question: What about the “Body weight less than control rats” value ([3]; topical 0.1 percent, end of four days of treatment) of the same compound?
Answer: Its value is 17%.

Question: And the Neovasc. ([4]; 1 mg/kg/day subcutaneous)?
Answer: The Neovasc. was 9.3 ± 2.2%.

Question: And the “Reduction of corneal neovascularization versus vehicle” value ([4]; 1 mg/kg/day subcutaneous)?
Answer: The value was -39.6%.
